Experimental data published in patent US11793815B2, “Oxindoles and methods of use thereof” (ALIGOS THERAPEUTICS, INC., priority 2020, dated 2023).

What follows are compounds tested against T1, human thyroid receptor beta ligand-binding domain (LBD) (Homo sapiens, UniProt P10828) (assay: THR Biochemical Assay (Assay 1): TR-FRET thyroid receptor beta coactivator assay). Settings: GST-tagged thyroid receptor beta LBD 1 nM, fluorescein SRC2-2 coactivator peptide 200 nM, 1 hr at rt, TR-FRET ratio 520:495; read-out: Assay 1 (EC50, THR-beta agonist).
T1 construct: Thyroid receptor beta LBD was added to the plate at a final concentration of 1 nM; purchased Invitrogen
T1 sequence (P10828 217-461 limits assumed): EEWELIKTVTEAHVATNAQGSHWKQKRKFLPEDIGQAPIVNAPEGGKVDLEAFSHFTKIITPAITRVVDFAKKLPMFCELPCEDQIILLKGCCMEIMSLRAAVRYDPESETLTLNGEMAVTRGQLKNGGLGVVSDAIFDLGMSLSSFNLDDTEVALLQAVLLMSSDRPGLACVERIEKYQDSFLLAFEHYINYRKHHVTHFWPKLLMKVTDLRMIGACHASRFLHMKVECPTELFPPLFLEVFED
Description: THR Biochemical Assay (Assay 1)
The TR-FRET thyroid receptor beta coactivator assay was used with slight, optimized modifications of the manufacturer's protocol (Invitrogen). The assay uses a terbium-labeled anti-GST antibody, a glutathione-S-transferase (GST) tagged human thyroid receptor, beta or alpha, ligand-binding domain (LBD), and a fluorescein labeled SRC2-2 coactivator peptide. The antibody interacts with the LBD, where the agonist also binds, resulting in increased affinity for the SRC2-2 coactivator peptide causing energy transfer […] the acceptor fluorophore and a FRET emission shift from 495 to 520 nm. The energy transfer was detected as an increase in the fluorescence emission of the fluorescein acceptor, and a decrease in the fluorescence emission of the terbium donor. The assay was performed in a 384-well black plate in a final volume of 20 μL. Serial dilution of various test agonists was performed in DMSO (1% final DMSO concentration) and added to the test plate. Thyroid receptor beta LBD was added to the plate at a final concentration of 1 nM, followed by the mixture of the fluorescein labeled SRC2-2 coactivator peptide, and the terbium-labeled anti-GST antibody at final concentrations of 200 nM and 2 nM respectively. The assay was incubated for 1 hr at rt protected from light. The TR-FRET was then measured on a Victor multilabel reader (Perkin Elmer) using an excitation wavelength of 340 nm with emission filters of 495 nm and 520 nm. The assay was quantified by expressing a ratio (520:495) of the intensities, and the resulting activation curves; EC50 values were generated using a sigmoidal dose response (variable slope) equation in GraphPad™ Prism 8.0.
Work on `CC1CC12C(=O)Nc1ccc(Oc3c(Cl)cc(-n4nc(N)c(=O)[nH]c4=O)cc3Cl)cc12` (single isomer, unassigned) [Compound 32, 6-amino-2-(3,5-dichloro-4-((2-methyl-2′-oxospiro[cyclopropane-1,3′-indolin]-5′-yl)oxy)phenyl)-1,2,4-triazine-3,5(2H,4H)-dione] yielded an EC50 of under 50 nM. With `CC1CC12C(=O)Nc1ccc(Oc3c(Cl)cc(NC(=O)C(=O)O)cc3Cl)cc12` (single isomer, unassigned) [Compound 34, 2-((3,5-dichloro-4-((2-methyl-2′-oxospiro[cyclopropane-1,3′-indolin]-5′-yl)oxy)phenyl)amino)-2-oxoacetic acid] the EC50 was under 50 nM. For `CC1CC12C(=O)Nc1ccc(Oc3c(Cl)cc(NC(=O)C(=O)O)cc3Cl)cc12` (single isomer, unassigned) [Compound 35, 2-((3,5-dichloro-4-((2-methyl-2′-oxospiro[cyclopropane-1,3′-indolin]-5′-yl)oxy)phenyl)amino)-2-oxoacetic acid], the EC50 was under 50 nM. For `Cc1cc(OCC(=O)O)c(C)c(C)c1Cc1ccc2c(n1)C(C)(C)C(=O)N2` [Compound 1, 4-([3,3-dimethyl-2-oxo-1H-pyrrolo[3,2-b]pyridin-5-yl]methyl)-2,3,5-trimethylphenoxyacetic acid], the EC50 was 50 to 250 nM. In the case of `Cc1cc(-n2nc(C#N)c(=O)[nH]c2=O)cc(C)c1Oc1ccc2c(c1)C1(CC1)C(=O)N2` [Compound 2, 2-(3,5-dimethyl-4-((2′-oxospiro[cyclopropane-1,3′-indolin]-5′-yl)oxy)phenyl)-3,5-dioxo-2,3,4,5-tetrahydro-1,2,4-triazine-6-carbonitrile], the EC50 is reported as under 50 nM. `Cc1cc(-n2nc(C#N)c(=O)[nH]c2=O)cc(C)c1Oc1ccc2c(c1)C1(CCC1)C(=O)N2` [Compound 3, 2-(3,5-dimethyl-4-((2′-oxospiro[cyclobutane-1,3′-indolin]-5′-yl)oxy)phenyl)-3,5-dioxo-2,3,4,5-tetrahydro-1,2,4-triazine-6-carbonitrile] gave an EC50 of under 50 nM. Compound `Cc1cc(-n2nc(N)c(=O)[nH]c2=O)cc(C)c1Cc1ccc2c(c1)C1(CCC1)C(=O)N2` [Compound 4, 6-amino-2-(3,5-dimethyl-4-{2′-oxo-1′H-spiro[cyclobutane-1,3′-indol]-5′-ylmethyl}phenyl)-4H-1,2,4-triazine-3,5-dione] has an EC50 of under 50 nM. `O=C1Nc2ccc(Oc3c(Cl)cc(-n4ncc(=O)[nH]c4=O)cc3Cl)cc2C12CCC2` [Compound 5, 2-(3,5-dichloro-4-((2′-oxospiro[cyclobutane-1,3′-indolin]-5′-yl)oxy)phenyl)-1,2,4-triazine-3,5(2H,4H)-dione] was tested, and the EC50 was under 50 nM. In the case of `Nc1nn(-c2cc(Cl)c(Oc3ccc4c(c3)C3(CCC3)C(=O)N4)c(Cl)c2)c(=O)[nH]c1=O` [Compound 6, 6-amino-2-(3,5-dichloro-4-((2′-oxospiro[cyclobutane-1,3′-indolin]-5′-yl)oxy)phenyl)-1,2,4-triazine-3,5(2H,4H)-dione], the EC50 is reported as under 50 nM. Compound `Cc1cc(-n2nc(C#N)c(=O)[nH]c2=O)cc(C)c1Cc1ccc2c(c1)C1(CC(F)(F)C1)C(=O)N2` [Compound 7, 2-(4-((3,3-difluoro-2′-oxospiro[cyclobutane-1,3′-indolin]-5′-yl)methyl)-3,5-dimethylphenyl)-3,5-dioxo-2,3,4,5-tetrahydro-1,2,4-triazine-6-carbonitrile] has an EC50 of over 25000 nM. Compound `Cc1cc(-n2nc(N)c(=O)[nH]c2=O)cc(C)c1Cc1ccc2c(c1)C1(CC(F)(F)C1)C(=O)N2` [Compound 8, 6-amino-2-(4-{3,3-difluoro-2′-oxo-1′H-spiro[cyclobutane-1,3′-indol]-5′-ylmethyl}-3,5-dimethylphenyl)-4H-1,2,4-triazine-3,5-dione] has an EC50 of over 25000 nM. `N#Cc1nn(-c2cc(Cl)c(Oc3ccc4c(c3)C3(CC(F)(F)C3)C(=O)N4)c(Cl)c2)c(=O)[nH]c1=O` [Compound 9, 2-(3,5-dichloro-4-((3,3-difluoro-2′-oxospiro[cyclobutane-1,3′-indolin]-5′-yl)oxy)phenyl)-3,5-dioxo-2,3,4,5-tetrahydro-1,2,4-triazine-6-carbonitrile] showed an EC50 of under 50 nM.
